Data reported in patent US8569489B2 (A.B. Intelpharm Limited, priority 2007, dated 2013).
Structures can show the parent of a compound that is named as a salt. Where two headings read alike, the source gives them in different places.

Legend:
[1] = system: isolated guinea pig ileum (spasmogenic effect of histamine); assay: Isolated guinea pig ileum, suppression of the spasmogenic effect of histamine; type: cell-based; conditions: histamine spasm, read-out: Antihistaminic activity, isolated ileum of guinea pig, IC50
Description: Study of the antihistaminic activity of the compounds on which a claim is made was done using known methodologies (Rukovodstvo po eksperimental'nomu izucheniyu novykh farmakologicheskikh veshchestv [Manual on experimental study of new pharmacological substances], Moscow, 2005, p. 489) on isolated guinea pig ileum (suppression of the spasmogenic effect of histamine) and on anesthetized guinea pigs (antagonism in relation to the bronchoconstrictor effect of histamine). In tests on intact animals, substances were administered intravenously (5 minutes before the administration of histamine) and orally (2 hours before the beginning of the study).

[2] = system: H1-histamine receptors (bronchoconstrictor effect of histamine); assay: Anesthetized guinea pigs, antagonism of the bronchoconstrictor effect of histamine (histamine bronchospasm model); type: in vivo, guinea pig; conditions: for Antihistaminic activity, guinea pigs in vivo, intravenous administration, ED50 / Antihistaminic activity, guinea pigs in vivo, peroral administration, ED50 / ED50: anesthetized guinea pigs; for ED50: Cavia porcellus; for Duration of effective blockade of H1-histamine receptors: histamine bronchospasm model, oral dose of 3 mg/kg
Experimental: In tests on intact animals, substances were administered intravenously (5 minutes before the administration of histamine) and orally (2 hours before the beginning of the study).

[3] = system: mice; assay: Acute toxicity, mice perorally
[4] = pH of aqueous solution of salts; type: physicochemical
[5] = Thermal stability
[6] = system: histamine-induced itch; assay: Itching induced by instillation of histamine solution into the eye of conscious guinea pigs; type: in vivo, guinea pig; conditions: 3 mg/kg administered orally
Description: (Rukovodstvo po […] [Manual on experimental study of new pharmacological substances], Moscow, 2005, p. 511)

[7] = system: passive cutaneous anaphylaxis; assay: Passive cutaneous anaphylaxis model in rats; type: in vivo, rat
Description: (Rukovodstvo po eksperimental'nomu izucheniyu novykh farmakologicheskikh veshchestv [Manual on experimental study of new pharmacological substances], Moscow, 2005, p. 511)

[8] = system: mice; conditions: mice perorally; literature value (footnotes * and **); cited from earlier work
[9] = intravenous, 5 minutes before histamine
[10] = orally 2 hours before the study
[11] = po, orally 2 hours before the study, read-out: Antihistaminic activity, guinea pigs in vivo, peroral administration, ED50
[12] = intravenous, 5 minutes before histamine, read-out: Antihistaminic activity, guinea pigs in vivo, intravenous administration, ED50

Row | Compound | IC50 [1] | Antihistaminic activity, guinea pigs in vivo, intravenous administration, ED50 [2, 9] | Antihistaminic activity, guinea pigs in vivo, peroral administration, ED50 [2, 10] | Acute toxicity, LD50 [3] | further results
1 | Cl.Cl.Cn1c(=O)c2c(ncn2CCCCN2CCN(C(c3ccccc3)c3ccccc3)CC2)n(C)c1=O [II-f] | 17 nM | 0.1 mg/kg | <1.5 mg/kg | 750.0 mg/kg | 
2 | Cn1c(=O)[nH]c(=O)c2c1ncn2CCCCN1CCN(C(c2ccccc2)c2ccccc2)CC1.O=C(O)CCC(=O)O [Succinate, 7-/4-(4-benzhydrylpiperazinyl-1)butyl/-3-methylxanthine succinate] |  |  |  |  | pH of aqueous solution [4]: 4.85; Thermal stability [5]: good thermal stability
3 | O=C(O)COCCN1CCN(C(c2ccccc2)c2ccc(Cl)cc2)CC1 (centres unmarked) [Cetirizine, reference compound] |  |  |  |  | IC50 ([1]; Cavia porcellus): 127 nM; ED50 [2, 11]: 0.2 mg/kg; ED50 [2, 12]: 0.07 mg/kg; Duration of effective blockade of H1-histamine receptors [2]: 48 h; Duration of the protective effect in the histamine-induced itch model [6]: diminishes significantly after 48 hours and disappears altogether after 72 hours; Antiallergic effect, passive cutaneous anaphylactic model ([7]; dose 3 mg/kg): moderate and similar antiallergic effect
4 | Cl.Cl.Cn1cnc2c1c(=O)n(CCCCN1CCN(C(c3ccccc3)c3ccccc3)CC1)c(=O)n2C [I-v] | 32 nM | 0.2 mg/kg | >1.5 mg/kg | >1000.0 mg/kg | 
5 | Cl.Cl.Cn1c(=O)n(CCCCN2CCN(C(c3ccccc3)c3ccc(Cl)cc3)CC2)c(=O)c2[nH]cnc21 (centres unmarked) [I-t] | 104 nM | 0.3 mg/kg |  | >1000.0 mg/kg | 
6 | CN1CCCC(n2nc(Cc3ccc(Cl)cc3)c3ccccc3c2=O)CC1 (centres unmarked) [Azelastine, reference compound] |  |  |  |  | ED50 [2, 11]: 0.015 mg/kg; ED50 [2, 12]: 0.05 mg/kg; Duration of effective blockade of H1-histamine receptors [2]: 48 h; Duration of the protective effect in the histamine-induced itch model [6]: diminishes significantly after 48 hours and disappears altogether after 72 hours; Acute toxicity, LD50 [8]: 124-139** mg/kg
7 | Cl.Cl.Cn1c(=O)n(CCCCN2CCN(C(c3ccccc3)c3ccccc3)CC2)c(=O)c2c1ncn2Cc1ccccc1 [I-i] | 111 nM | 0.2 mg/kg | 0.3 mg/kg | 400.0 mg/kg | 
8 | Cl.Cl.Cn1c(=O)n(CCCN2CCN(C(c3ccccc3)c3ccccc3)CC2)c(=O)c2c1ncn2Cc1ccccc1 [I-b] | 126 nM | 0.3 mg/kg |  | >800.0 mg/kg | 
9 | Cn1c(=O)[nH]c(=O)c2c1ncn2CCCCN1CCN(C(c2ccccc2)c2ccccc2)CC1 [Oxalate, 7-/4-(4-benzhydrylpiperazinyl-1)butyl/-3-methylxanthine] |  |  |  |  | pH of aqueous solution [4]: 3.44
10 | Cl.Cl.Cn1c(=O)n(CCCCN2CCN(C(c3ccc(F)cc3)c3ccc(F)cc3)CC2)c(=O)c2c1ncn2Cc1ccccc1 [I-l] | 185 nM | 0.5 mg/kg | 0.5 mg/kg | >1000.0 mg/kg | 
11 | Cl.Cl.Cn1c(=O)n(CCCCN2CCN(C(c3ccccc3)c3ccccc3)CC2)c(=O)c2[nH]cnc21 [I-s, 1-[4-(benzhydryl-4-piperazinyl-1)butyl]-3-methylxanthine dihydrochloride] | 26 nM | 0.2 mg/kg | 0.3 mg/kg | >750.0 mg/kg | 
12 | Cl.Cl.Cn1c(=O)[nH]c(=O)c2c1ncn2CCCN1CCN(C(c2ccccc2)c2ccccc2)CC1 [II-e] | 19 nM | 0.1 mg/kg |  | 900.0 mg/kg | 
13 | Cl.Cl.Cn1c(=O)c2c(ncn2CCCN2CCN(C(c3ccccc3)c3ccccc3)CC2)n(C)c1=O [II-d] | 12 nM | 0.05 mg/kg |  | >1000.0 mg/kg | 
14 | Cn1c(=O)[nH]c(=O)c2c1ncn2CCCCN1CCN(C(c2ccccc2)c2ccccc2)CC1 [Dihydrochloride, 7-/4-(4-benzhydrylpiperazinyl-1)butyl/-3-methylxanthine] |  |  |  |  | pH of aqueous solution [4]: 2.45
15 | Cl.Cl.Cn1c(=O)n(CCCCCN2CCN(C(c3ccc(F)cc3)c3ccc(F)cc3)CC2)c(=O)c2c1ncn2Cc1ccccc1 [I-n] | 253 nM | 1.2 mg/kg | 3.0 mg/kg | 250 mg/kg | 
16 | Cl.Cl.Cn1c(=O)n(CCCN2CCN(C(c3ccc(F)cc3)c3ccc(F)cc3)CC2)c(=O)c2c1ncn2Cc1ccccc1 [I-d] | 114 nM | 0.6 mg/kg | 3.0 mg/kg | >250.0 mg/kg | 
17 | Cn1c(=O)[nH]c(=O)c2c1ncn2CCCCN1CCN(C(c2ccccc2)c2ccccc2)CC1 [II-g, 3-methyl-7-[4-(benzhydryl-4-piperazinyl-1)butyl]xanthine] | 18 nM | 0.02 mg/kg | 0.02 mg/kg | 1300.0 mg/kg | Duration of effective blockade of H1-histamine receptors [2]: 72 h; Duration of the protective effect in the histamine-induced itch model [6]: remains at a stable level for 2 days and decreases only after 72 hours; Antiallergic effect, passive cutaneous anaphylactic model ([7]; dose 1 mg/kg): moderate and similar antiallergic effect
18 | Cl.Cl.Cn1c(=O)n(CCCN2CCN(C(c3ccccc3)c3ccccc3)CC2)c(=O)c2[nH]cnc21 [I-q] | 42 nM | 0.4 mg/kg |  | >1000.0 mg/kg | 
